# In patent US9951060B2, “2-acylaminothiazole derivative or salt thereof” (ASTELLAS PHARMA INC., priority 2014, dated 2018):
# Where two headings read alike, the source gives them in different places.
# How the values were obtained:
# rat isolated bladder = assay: Test Example 3: effect on electrical field stimulation-induced contraction in rat isolated bladder; details: 10 μM test substance; AUC of contraction, value before treatment = 100%; SD female rat bladder
# Protocol: Test Example 3: Effect on Electrical Field Stimulation-Induced Contraction in Rat Isolated Bladder
# As an effect on the nerve stimulation-dependent bladder contraction in in vitro, the effect of the Example compounds of the present invention in the electrical field stimulation-induced contraction of the rat isolated bladder was measured by the following method. That is, a bladder specimen having a width of about 2 mm and a length of about 10 mm in the longitudinal direction from the bladder isolated from a Sprague-Dawley (SD) female rat (Japan SLC, Inc.) was prepared. The prepared bladder specimen was suspended in an organ bath filled with 10 mL of a Krebs-Henseleite solution. The Krebs-Henseleite solution was aerated at 95% 02 and 5% CO2, and kept at 37° C. After carrying out stabilization at an initial tension of 1 g, the contraction was caused twice with 60 mM KCl. After stabilization of the specimen with a Krebs-Henseleite solution, the contraction was caused by carrying out electrical field stimulation at 20 V with an electrical stimulation device (Nihon Kohden) (a stimulation frequency of 8 Hz, a pulse width of 0.3 msec, and a stimulation time of 10 seconds). By repeating the transmural electrical stimulation at an interval of 2 minutes, a voltage was adjusted to obtain a contraction height of approximately 50% of the contractile response at 20 V. After the contraction by electrical field stimulation had been stabilized, 10 μL of the test substances dissolved in 100% dimethyl sulfoxide in advance (final concentrations of 3 μM, 10 μM, and 30 μM) was added thereto. The test substances were cumulatively administered at the following concentrations after the low-concentration contractile response had been stabilized. The response was taken into a personal computer through a PowerLab (registered trademark) (AD Instruments, Inc.), and analyzed by LabChart (registered trademark) (AD Instruments, Inc.). When the area under the response (area under curve, AUC) in each contraction response was calculated and the value before treatment with the test substance was taken as 100%, the enhancement rate (% of pre) of the isolated bladder contractions after treatment with the test substance was calculated.
# [1] = biological target: T1, human muscarinic M3 receptor (Homo sapiens, UniProt P20309); assay: Test Example 1: muscarinic M3 receptor positive allosteric modulator activity (shift of carbachol concentration-response curve, intracellular Ca2+, FLIPR); details: carbachol EC50 without / with test substance, CHO-K1 cells expressing human M3; for muscarinic M3 receptor-positive allosteric modulator activity, 1 μM (-fold shift): test substance 1 μM; for muscarinic M3 receptor-positive allosteric modulator activity, 10 μM (-fold shift): test substance 10 μM
# T1 sequence (P20309 whole entry): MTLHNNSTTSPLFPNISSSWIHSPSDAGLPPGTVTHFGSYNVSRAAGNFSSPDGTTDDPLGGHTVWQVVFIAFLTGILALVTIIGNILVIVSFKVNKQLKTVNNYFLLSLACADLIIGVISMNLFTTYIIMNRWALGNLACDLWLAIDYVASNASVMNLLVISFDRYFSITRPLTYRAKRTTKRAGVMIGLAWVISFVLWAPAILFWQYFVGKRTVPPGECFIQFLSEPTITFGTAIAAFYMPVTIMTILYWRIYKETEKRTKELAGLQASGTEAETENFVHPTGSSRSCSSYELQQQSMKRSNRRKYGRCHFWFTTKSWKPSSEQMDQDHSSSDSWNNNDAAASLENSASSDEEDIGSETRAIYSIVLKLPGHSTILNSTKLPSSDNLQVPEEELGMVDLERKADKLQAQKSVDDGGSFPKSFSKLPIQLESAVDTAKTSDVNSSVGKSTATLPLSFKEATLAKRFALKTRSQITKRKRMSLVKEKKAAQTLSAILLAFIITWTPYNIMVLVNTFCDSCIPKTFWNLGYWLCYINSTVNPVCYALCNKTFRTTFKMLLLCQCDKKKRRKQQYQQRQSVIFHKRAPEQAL
# Excerpt: (§1) Test Example 1: Evaluation of Muscarinic M3 Receptor Positive Allosteric Modulator Activity
# (§2) a) Construction of Vector Expressing Human Muscarinic M3 Receptor
# (§3) A human muscarinic M3 receptor gene (GenBank Accession No.: NM_000740.2) was introduced into an expression vector pcDNA3.1™ (Life Technologies).
# (§4) b) Construction of Cells Stably Expressing Human Muscarinic M3 Receptor
# (§5) A vector expressing a human muscarinic M3 receptor was introduced into a CHO—K1 cell (ATCC No.: CCL-61). The introduction was carried out according to the attached instructions, using a transfection reagent, Lipofectoamine (registered trademark) 2000 Reagent (Life Technologies). The cells were incubated in an alpha Modified Eagle Minimum Essential Medium (α-MEM) including 2 mM glutamine, 10% fetal bovine serum, and 2.0 mg/mL Geneticin (registered trademark) (Life Technologies) for 4 weeks to acquire a drug-resistant clone.
# (§6) c) Measurement of Intracellular Ca^2+ Concentration
# (§7) The cells obtained in b) above were suspended in an α-MEM including 2 mM glutamine, 10% fetal bovine serum, and 0.2 mg/mL Geneticin (registered trademark) to the amount from 1.2 to 1.5×10^4 cells/well the day before the experiment, dispensed into a 384-well plate (Model No. 355962, BD Biosciences), and incubated overnight at 37° C. and 5% CO2. The medium was replaced with a loading buffer (an assay buffer (Hank's balanced salt solution (HBSS), 1 g/L BSA, 20 mM HEPES (pH 7.5), and 2.5 mM probenecid), including 3.1 μM Fluo 4-AM (Dojindo Laboratories) and incubated for about 2 hours at room temperature. Thereafter, the cells were washed with a plate washer ELx405™ (BIO-TEK Instrument, Inc.) set with the assay buffer, and set in an intracellular Ca^2+ concentration measuring system (FLIPR^tetra (registered trademark), Molecular Device Co.). The test substances (final concentration of 1 μM or 10 μM) and carbachol (Sigma, final concentration of 0.0024 nM to 10 μM) which had each been dissolved in the assay buffer in advance were set in a FLIPR^tetra (registered trademark). The test substances were added to the cells in the device and after about 5 minutes, carbachol was added to the cells. An increase rate of the intracellular Ca^2+ concentration by carbachol was measured (excitement wavelength of 470 nm to 495 nm and a fluorescence wavelength of 515 nm to 575 nm).
# (§8) For the muscarinic M3 receptor-positive allosteric modulator activity, a shift toward a lower concentration side of a carbachol concentration-response curve by the test substance was used as an index. […] For example, when the EC50 value of carbachol in the absence of the test substance was 0.1 μM and the EC50 value of carbachol in the presence of the test substance was 0.01 μM, the value of the muscarinic M3 receptor-positive allosteric modulator activity becomes 10, showing that the test substance causes a 10-fold shift in the EC50 value toward to the low concentration side.
# [2] = biological target: T1, human muscarinic M3 receptor
# Excerpt: as §1, §2, §3, §4, §5, §6, §7, §8
SMILES,Enhancement rate (% of pre) of isolated bladder contractions (rat isolated bladder),"muscarinic M3 receptor-positive allosteric modulator activity, 1 μM (-fold shift) [1]","muscarinic M3 receptor-positive allosteric modulator activity, 10 μM (-fold shift) [1]","muscarinic M3 receptor-positive allosteric modulator activity, 1 μM (-fold shift) [2]","muscarinic M3 receptor-positive allosteric modulator activity, 10 μM (-fold shift) [2]"
C[C@@H]1CCCN1Cc1sc(NC(=O)c2cnc(N3CCN(CCC(=O)[O-])CC3)cn2)nc1-c1cc(C#N)cc(C(F)(F)F)c1.[Na+] [Example 34],137 % of pre,18 -fold shift,116 -fold shift,–,–
Cc1cc(OC(F)(F)F)cc(-c2nc(NC(=O)c3cnc(N4CCN(CCC(=O)O)CC4)cn3)sc2CN2CCC[C@H]2C)c1 [Example 46],132 % of pre,–,–,29 -fold shift,199 -fold shift
COc1c(F)cc(-c2nc(NC(=O)c3cnc(N4CCN(CCC(=O)O)CC4)cn3)sc2CN2CCC[C@H]2C)cc1C(F)(F)F [Example 72],157 % of pre,–,–,31 -fold shift,152 -fold shift
CC[C@@H]1CCCN1Cc1sc(NC(=O)c2cnc(N3CCN(CCC(=O)O)C[C@@H]3C)cn2)nc1-c1cc(Cl)cs1 [Example 28],123 % of pre,–,–,36 -fold shift,108 -fold shift
CC[C@@H]1CCCN1Cc1sc(NC(=O)c2cnc(N3CCN(CCC(=O)O)C[C@H]3C)cn2)nc1-c1ccc(OC(C)C)c(C(F)(F)F)c1 [Example 135],139 % of pre,–,–,25 -fold shift,204 -fold shift
CCC[C@@H]1CCCN1Cc1sc(NC(=O)c2cnc(N3CCN(CCC(=O)[O-])CC3)cn2)nc1-c1cccc(C(F)(F)F)c1.[Na+] [Example 124],132 % of pre,28 -fold shift,101 -fold shift,–,–
C[C@@H]1CCCN1Cc1sc(NC(=O)c2cnc(N3CCN(CC(=O)O)C[C@H]3C)cn2)nc1-c1cc(F)cc(C(F)(F)F)c1 [Example 141],121 % of pre,–,–,45 -fold shift,159 -fold shift
Cc1cc(OC(F)(F)F)cc(-c2nc(NC(=O)c3cnc(N4CCN(C(C)C(=O)O)CC4)cn3)sc2CN2CCC[C@H]2C)c1 (stereo partly drawn) [Example 48],143 % of pre,–,–,27 -fold shift,113 -fold shift
